US20020009464A1, “Modified glycosides, compositions comprised thereof and methods of use thereof” (priority 1997, published 2002)

What was measured:
[1] = Release of model active from glass layers monitored by absorbance at 510 nm; type: physicochemical; details: aqueous 5% Tween 20, constant agitation
Excerpt: Disperse Red 1 was incorporated as a model active in a glass of lactitol nonaacetate (ratio 0.1/100 g/g) by melt mixing. The release of model active from 0.5 mm and 3 mm thickness layers of glass, into either water or an aqueous solution of 5% Tween 20, was monitored by absorbance at 510 nm.

[2] = Glass transition temperature (Tg) by differential scanning calorimetry; details: DSC, average of two runs
Excerpt: The acetylated polyol was recovered by evaporating off the solvent and the derivative characterized by nuclear magnetic resonance spectroscopy (NMR) and differential scanning calorimetry (DSC).
Tgs were obtained as the average of two runs.

Compound	time to complete release of active ([1]; 0.5 mm thickness glass)	time to complete release of active ([1]; 3 mm thickness glass)	Tg [2]
CCN(CCO)c1ccc(N=Nc2ccc([N+](=O)[O-])cc2)cc1 [Disperse red 1]	12 h	72 h	–
α-D-glucopyranosyl-1→6-mannitol nonaacetate [GPM nonaacetate]	–	–	35 °C
α-D-glucopyranosyl-1→6-sorbitol nonaacetate [GPS nonaacetate]	–	–	17.4 °C
